Source: patent publication US8835134B2, “Cycloastragenol monoglucoside, preparation, pharmaceutical composition and application thereof” (Tianjin Institute of Pharmaceutical Research, priority 2007, dated 2014)

Test system: anesthetized open-chest dogs
Test: Hemodynamics of anesthetized open-chest dogs, intravenous infusion
Type: in vivo, mongrel dogs
Conditions: 0.15 mg/kg iv
Protocol: The animals were anesthetized by intravenous injection of 30 mg/kg sodium pentobarbital, tracheally intubated, and mechanically ventilated with positive air pressure. Left thoracotomy was performed through the fourth intercostal space and the heart was suspended in a pericardial cradle, the aortic root was isolated and a probe of blood flow meter (12 or 14 mm in diameter) was fixed to measure the aortic blood flow as a representation of cardiac output (CO), the circumflex branch of left coronary artery was isolated and a probe of blood flow meter (2 or 2.5 mm in diameter) was fixed to measure the coronary blood flow (CBF). A polyethylene catheter filled with heparin physiological saline was inserted through cardiac apex into the left ventricle to measure the left ventricular pressure (LVP) and left ventricular end-diastolic pressure (LVEDP), Peak positive and peak negative first derivatives of the LVP (+ LVdp/dt and − LVdp/dt) were calculated with the Acknowledge software. The systolic blood pressure (SBP), diastolic blood pressure (DBP) and mean arterial pressure (MAP) were measured by polyethylene catheter via the femoral artery, ECG □ was measured by a AC-601G ECG amplifier. The above-mentioned analog signal was input into a data acquisition workstation (MP100, BIOPAC Systems, USA) to a computer running Acknowledge (version 3.7.1).
After surgery, various indexes before administration were recorded until the indexes were stable, and then intravenous infusion administration was conducted. Thirty dogs were divided into five groups (six dogs in each group), the experiment groups were given 0.15, 0.3, 0.6 mg/kg of ASP-[…] respectively, the normal control group was given 1 ml/kg of solvent, and the positive control group was given 0.3 mg/kg of astragaloside IV. The delivery volumes were 15 ml for each dog was and the delivery velocity was 1 ml/min. The indexes were recorded at 5, 10, 15, 20, 30, 45, 60, 90 and 120 mins after drug administration. At the end of experiment, the hearts were excised and weighted. The myocardial blood flow for per hectogram (CF), coronary resistance (CR), cardiac index (CI), left ventricular work (LVW) and total peripheral resistance (TPR) were calculated according to the following formulae: CF=CBF×[…]/heart weight CR=MAP/CF CI=CO/0.11×(body weight)^2/3 LVW=CO×(MAP−5)×1.052×0.0136 TPR=MAP×79.92/CO
Data are expressed as mean±SD ( x±s), the paired t-test was used to compare the significance between before and after administration, the unpaired t-test was adopted for comparison between groups.

CC(C)(O)[C@@H]1CC[C@](C)([C@H]2[C@@H](O)C[C@@]3(C)C4C[C@H](OC5OC(CO)C(O)C(O)C5O)C5C(C)(C)[C@@H](O)CC[C@@]56C[C@@]46CC[C@]23C)O1 (stereo partly drawn) [CMG, Cycloastragenol-6-O-β-D-glucoside]
LVW (20 min after administration): 1.04 ± 0.23 kg · m | LVW change vs before administration (20 min after administration): (−0.08 ± 0.21) kg · m | TPR (20 min after administration): 4882 ± 1971 dyn · s/cm^5 | TPR change vs before administration (20 min after administration): (−268 ± 672) dyn · s/cm^5 | dp/dt (20 min after administration): 1144 ± 452 mmHg/s | dp/dt change vs before administration (20 min after administration): (−6 ± 113) mmHg/s | −dp/dt (20 min after administration): −830 ± 277 mmHg/s | −dp/dt change vs before administration (20 min after administration): (58 ± 77) mmHg/s | CF (30 min after administration): 52.5 ± 16.9 ml/min/100 g | CF change vs before administration (30 min after administration): (−5.2 ± 7.9) ml/min/100 g | CI (30 min after administration): 1.98 ± 0.44 L/min/m^2 | CI change vs before administration (30 min after administration): (−0.10 ± 0.27) L/min/m^2 | CO (30 min after administration): 1.14 ± 0.24 L/min | CO change vs before administration (30 min after administration): (−0.07 ± 0.16) L/min | CR (30 min after administration): 1.38 ± 0.38 mmHg/ml/min/100 g | CR change vs before administration (30 min after administration): (0.02 ± 0.13) mmHg/ml/min/100 g | LVEDP (30 min after administration): 1.2 ± 2.4 mmHg | LVEDP change vs before administration (30 min after administration): (−0.58 ± 0.46) mmHg | LVP (30 min after administration): 100 ± 21 mmHg | LVP change vs before administration (30 min after administration): (−5.0 ± 7.3) mmHg | LVW (30 min after administration): 1.01 ± 0.26 kg · m | LVW change vs before administration (30 min after administration): (−0.11 ± 0.27) kg · m | TPR (30 min after administration): 5045 ± 2043 dyn · s/cm^5 | TPR change vs before administration (30 min after administration): (−105 ± 498) dyn · s/cm^5 | dp/dt (30 min after administration): 1170 ± 425 mmHg/s | dp/dt change vs before administration (30 min after administration): (20 ± 157) mmHg/s | −dp/dt (30 min after administration): −863 ± 258 mmHg/s | −dp/dt change vs before administration (30 min after administration): (25 ± 79) mmHg/s | CF (45 min after administration): 51.6 ± 17.1 ml/min/100 g | CF change vs before administration (45 min after administration): (−6.1 ± 8.1) ml/min/100 g | CI (45 min after administration): 2.02 ± 0.45 L/min/m^2 | CI change vs before administration (45 min after administration): (−0.06 ± 0.43) L/min/m^2 | CO (45 min after administration): 1.16 ± 0.22 L/min | CO change vs before administration (45 min after administration): (−0.04 ± 0.25) L/min | CR (45 min after administration): 1.42 ± 0.39 mmHg/ml/min/100 g | CR change vs before administration (45 min after administration): (0.07 ± 0.20) mmHg/ml/min/100 g | LVEDP (45 min after administration): 1.3 ± 2.2 mmHg | LVEDP change vs before administration (45 min after administration): (−0.5 ± 0.44) mmHg | LVP (45 min after administration): 101 ± 19 mmHg | LVP change vs before administration (45 min after administration): (−3.6 ± 4.6) mmHg | LVW (45 min after administration): 1.06 ± 0.31 kg · m | LVW change vs before administration (45 min after administration): (−0.06 ± 0.32) kg · m | TPR (45 min after administration): 4951 ± 1731 dyn · s/cm^5 | TPR change vs before administration (45 min after administration): (−199 ± 925) dyn · s/cm^5 | dp/dt (45 min after administration): 1164 ± 356 mmHg/s | dp/dt change vs before administration (45 min after administration): (14 ± 86) mmHg/s | −dp/dt (45 min after administration): −854 ± 259 mmHg/s | −dp/dt change vs before administration (45 min after administration): (34 ± 80) mmHg/s | CF (60 min after administration): 51.8 ± 15.0 ml/min/100 g | CF change vs before administration (60 min after administration): (−5.9 ± 9.9) ml/min/100 g | CI (60 min after administration): 1.92 ± 0.42 L/min/m^2 | CI change vs before administration (60 min after administration): (−0.16 ± 0.37) L/min/m^2 | CO (60 min after administration): 1.11 ± 0.21 L/min | CO change vs before administration (60 min after administration): (−0.10 ± 0.23) L/min | CR (60 min after administration): 1.38 ± 0.36 mmHg/ml/min/100 g | CR change vs before administration (60 min after administration): (0.03 ± 0.16) mmHg/ml/min/100 g | LVEDP (60 min after administration): 1.3 ± 2.1 mmHg | LVEDP change vs before administration (60 min after administration): (−0.46 ± 0.41) mmHg | LVP (60 min after administration): 101 ± 19 mmHg | LVP change vs before administration (60 min after administration): (−4.1 ± 4.9) mmHg | LVW (60 min after administration): 1.00 ± 0.34 kg · m | LVW change vs before administration (60 min after administration): (−0.12 ± 0.33) kg · m | TPR (60 min after administration): 5112 ± 1599 dyn · s/cm^5 | TPR change vs before administration (60 min after administration): (−38 ± 811) dyn · s/cm^5 | dp/dt (60 min after administration): 1126 ± 375 mmHg/s | dp/dt change vs before administration (60 min after administration): (−24 ± 57) mmHg/s | −dp/dt (60 min after administration): −841 ± 249 mmHg/s | −dp/dt change vs before administration (60 min after administration): (47 ± 92) mmHg/s | CF (90 min after administration): 53.7 ± 14.3 ml/min/100 g | CF change vs before administration (90 min after administration): (−4.0 ± 10.4) ml/min/100 g | CI (90 min after administration): 1.83 ± 0.36 L/min/m^2 | CI change vs before administration (90 min after administration): (−0.25 ± 0.39) L/min/m^2 | CO (90 min after administration): 1.06 ± 0.20 L/min
